Source: article PMC8237258 (Journal of Medicinal Chemistry, 2021)
Several values for one entry are separate records, joined by “and”; a condition that tells them apart may be missing. Equal values may be shown once. Where a SMILES comes first, the peptide text is derived from it. Bridges are numbered along the chain shown (N, C = ends). [ ]: non-standard residue; d: D form.

Key:
[1] = biological target: guanylate cyclase-C (human (endogenous in T84)) (UniProt P25092)
in vitro [2] = conditions: simulated gi fluid, pH 1.3
GC-C receptor = GC-C receptor (Homo sapiens, UniProt P25092); experiment: cell-based
Chain of GC-C receptor (P25092 24-1073 limits assumed): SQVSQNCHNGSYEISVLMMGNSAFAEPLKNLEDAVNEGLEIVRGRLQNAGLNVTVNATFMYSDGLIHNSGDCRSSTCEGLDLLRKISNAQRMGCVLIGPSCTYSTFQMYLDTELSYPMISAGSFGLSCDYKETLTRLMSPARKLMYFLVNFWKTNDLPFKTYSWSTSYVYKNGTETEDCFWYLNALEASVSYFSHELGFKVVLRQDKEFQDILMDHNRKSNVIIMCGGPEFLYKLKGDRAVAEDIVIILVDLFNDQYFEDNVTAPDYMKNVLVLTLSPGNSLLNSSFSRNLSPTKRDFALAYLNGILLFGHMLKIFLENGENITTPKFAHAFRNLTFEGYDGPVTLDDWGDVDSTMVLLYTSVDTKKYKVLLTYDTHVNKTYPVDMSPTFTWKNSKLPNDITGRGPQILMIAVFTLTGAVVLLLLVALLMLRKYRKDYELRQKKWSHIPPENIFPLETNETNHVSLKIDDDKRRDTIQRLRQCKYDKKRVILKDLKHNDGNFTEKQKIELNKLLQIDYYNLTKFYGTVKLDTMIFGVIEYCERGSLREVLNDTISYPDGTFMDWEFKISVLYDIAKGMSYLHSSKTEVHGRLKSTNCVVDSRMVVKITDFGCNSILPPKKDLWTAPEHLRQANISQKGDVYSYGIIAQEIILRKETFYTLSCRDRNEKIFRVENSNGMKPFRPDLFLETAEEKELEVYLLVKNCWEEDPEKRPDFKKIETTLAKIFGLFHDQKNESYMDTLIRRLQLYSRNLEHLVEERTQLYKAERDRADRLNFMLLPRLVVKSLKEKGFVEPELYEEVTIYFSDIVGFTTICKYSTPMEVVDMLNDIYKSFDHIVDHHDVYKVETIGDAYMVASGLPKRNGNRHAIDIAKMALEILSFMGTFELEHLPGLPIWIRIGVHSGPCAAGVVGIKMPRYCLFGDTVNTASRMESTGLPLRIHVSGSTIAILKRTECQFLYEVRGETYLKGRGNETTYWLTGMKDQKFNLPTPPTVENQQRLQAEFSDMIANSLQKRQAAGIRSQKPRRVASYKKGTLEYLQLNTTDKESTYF

in vitro [3] = conditions: pig, simulated gi fluid, pH 6.8
[4] = in vivo; cited from earlier work

Chain of guanylate cyclase-C (human (endogenous in T84)) (P25092 24-1073): as the sequence (P25092 24-1073 limits assumed) above

Molecule | EC50 of cGMP accumulation in human T84 cells (cGMP HTRF assay kit) [1] [µM] | half-life (in vitro [2]) [h] | EC50 (GC-C receptor) [µM] | half-life (in vitro [3]) [h] | also measured
[D-Val^14]-Linaclotide (peptide) | 0.104 |  |  |  | 
C[C@@H]1NC(=O)[C@@H]2CCCN2C(=O)[C@H](CC(N)=O)NC(=O)[C@@H]2CSSC[C@H](N)C(=O)N[C@H]3CSSC[C@H](NC1=O)C(=O)N[C@@H]([C@@H](C)O)C(=O)NCC(=O)N[C@H](C(=O)N[C@H](Cc1ccc(O)cc1)C(N)=O)CSSC[C@H](NC(=O)[C@H](Cc1ccc(O)cc1)NC(=O)[C@H](CCC(=O)O)NC3=O)C(=O)N2 [[D-Tyr^14]-Linaclotide] (H-CCEYCCNPACTGC[dY]-NH2; disulfide 1-6, 2-10, 5-13) |  | > 8 | 0.0165 ± 0.0058 | > 8 | EC50/EC50 linaclotide fold (GC-C receptor): 4.5 fold
[desTyr^14]-Linaclotide-NH2 (peptide) | 0.0337 |  |  |  | 
CC(C)[C@@H](NC(=O)[C@@H]1CSSC[C@@H]2NC(=O)[C@H](Cc3ccc(O)cc3)NC(=O)[C@H](CCC(=O)O)NC(=O)[C@@H]3CSSC[C@H](NC(=O)[C@H](C)NC(=O)[C@@H]4CCCN4C(=O)[C@H](CC(N)=O)NC(=O)[C@H](CSSC[C@H](N)C(=O)N3)NC2=O)C(=O)N[C@@H]([C@@H](C)O)C(=O)NCC(=O)N1)C(N)=O [[D-Val^14]-Linaclotide] (H-CCEYCCNPACTGC[dV]-NH2; disulfide 1-6, 2-10, 5-13) |  | > 8 | 0.104 ± 0.0216 | > 8 | EC50/EC50 linaclotide fold (GC-C receptor): 28 fold; fold less potent than [D-Tyr^14]-Linaclotide (GC-C receptor): 6 fold
C[C@@H]1NC(=O)[C@@H]2CCCN2C(=O)[C@H](CC(N)=O)NC(=O)[C@@H]2CSSC[C@@H]3NC(=O)[C@H](Cc4ccc(O)cc4)NC(=O)[C@@H]4CSSC[C@H](NC(=O)[C@H](Cc5ccc(O)cc5)NC(=O)[C@H](CCC(=O)O)NC(=O)[C@H](CSSC[C@H](NC1=O)C(=O)N[C@@H]([C@@H](C)O)C(=O)NCC(=O)N4)NC3=O)C(=O)N2 [[cyclic]-Linaclotide] (cyclo(ACTGCYCCEYCCNP); disulfide 2-8, 5-11, 7-12) |  | > 8 | 2.99 ± 0.929 | > 8 | EC50/EC50 linaclotide fold (GC-C receptor): 808 fold and ~800 fold
Linaclotide (peptide) | 0.0037 |  |  |  | 
C[C@@H]1NC(=O)[C@@H]2CCCN2C(=O)[C@H](CC(N)=O)NC(=O)[C@@H]2CSSC[C@H](N)C(=O)N[C@H]3CSSC[C@H](NC1=O)C(=O)N[C@@H]([C@@H](C)O)C(=O)NCC(=O)N[C@H](C(=O)N[C@@H](Cc1ccc(O)cc1)C(N)=O)CSSC[C@H](NC(=O)[C@H](Cc1ccc(O)cc1)NC(=O)[C@H](CCC(=O)O)NC3=O)C(=O)N2 [Linaclotide-NH2] (H-CCEYCCNPACTGCY-NH2; disulfide 1-6, 2-10, 5-13) |  | > 8 | 0.0072 ± 0.0021 | > 8 | 
[D-Tyr^14]-Linaclotide (peptide) | 0.0165 |  |  |  | 
[Sec^1,6; D-Tyr^14]-Linaclotide (peptide) | 0.005 |  |  |  | 
C[C@@H]1NC(=O)[C@@H]2CCCN2C(=O)[C@H](CC(N)=O)NC(=O)[C@@H]2CSSC[C@H](N)C(=O)N[C@H]3CSSC[C@H](NC1=O)C(=O)N[C@@H]([C@@H](C)O)C(=O)NCC(=O)N[C@H](C(N)=O)CSSC[C@H](NC(=O)[C@H](Cc1ccc(O)cc1)NC(=O)[C@H](CCC(=O)O)NC3=O)C(=O)N2 [[desTyr^14]-Linaclotide-NH2] (H-CCEYCCNPACTGC-NH2; disulfide 1-6, 2-10, 5-13) |  | > 8 | 0.0337 ± 0.0057 | > 8 | 
C[C@@H]1NC(=O)[C@@H]2CCCN2C(=O)[C@H](CC(N)=O)NC(=O)[C@@H]2CSSC[C@H](N)C(=O)N[C@H]3CSSC[C@H](NC1=O)C(=O)N[C@@H]([C@@H](C)O)C(=O)NCC(=O)N[C@H](C(=O)N[C@@H](Cc1ccc(O)cc1)C(=O)O)CSSC[C@H](NC(=O)[C@H](Cc1ccc(O)cc1)NC(=O)[C@H](CCC(=O)O)NC3=O)C(=O)N2 [Linaclotide, reference compound] (H-CCEYCCNPACTGCY-OH; disulfide 1-6, 2-10, 5-13 (inferred)) |  | > 8 | 0.0037 ± 0.0005 | 0.8 | absorption into the systemic circulation [4]: insignificant; amount excreted in the feces [4]: 3–5%
Linaclotide-NH2 (peptide) | 0.0072 |  |  |  | 
[cyclic]-Linaclotide (peptide) | 2.99 |  |  |  | 
